Reference: patent publication US11407724B2, “Process for the production of cannabinoids” (Bessor Pharma, LLC, priority 2018, dated 2022)

Tested on: TRPV 1 channels
Test: Calcium assay (Fluo-4) in HEK-TRPV1 cells, dose response comparison
Format: cell-based
Settings: Fluo-4 loaded, 1 mM external calcium chloride, 0-20 seconds baseline, compound added at 20 seconds, synthesized vs Sigma-sourced CBD (FIGS. 1A-1D)
Protocol: Molecular Pharmacology, 2016, volume 90, pages 300-308) HEK 293 cells with TRPV1 channels have been used as model systems (P. Geppetti and M. Trevisani, Activation and sensitisation of the vanilloid receptor: role in gastrointestinal inflammation and function, British Journal of Pharmacology, 2004, volume 141, pages 1313-1320);
HEK TRexTRPV1 cultured in DMEM, 10% Fetal Bovine Serum, 2 mM L-glutamine, 10 microgramg/ml Blasticidin (Calbiochem, San Diego Calif.), […] Zeocin (InvivoGen, San Diego Calif.), followed by inducing indicated transgene expression using 1 microgram/ml Tetracycline for 16-24 hrs. Comparisons made to untransfected HEK cells or HEKTRexTRPV1 with or without induction.
Cells washed and incubated with 0.2 micromolar Fluo-4 [54] for 30 minutes at 37° C. in a standard modified Ringer's solution of the following composition (in mM): NaCl 145, KCl 2.8, CsCl 10, CaCl2 10, MgCl2 2, glucose 10, Hepes-NaOH 10, pH 7.4, 330 mOsm. Cells transferred to 96-well plates at 50,000 cells/well and stimulated as indicated. Calcium signals acquired using a Flexstation 3 (Molecular Devices, Sunnydale, USA). Data are analyzed according to the methods in I. Díaz-Franulic, J. Caceres-Molina, R. V. Sepulveda, F. Gonzalez-Nilo, R. Latorre, Structure-Driven Pharmacology of Transient Receptor Potential Channel Vanilloid 1, Molecular Pharmacology, 2016, volume 90, pages 300-8. […]

C=C(C)[C@@H]1CCC(C)=C[C@H]1c1c(O)cc(CCCCC)cc1O [cannabidiol (11, CBD), Cannabidiol]
“biological finger print” and dose response on TRPV 1 channels: the same “biological finger print” and dose response
